Experimental data as given in US20250262201A1, “COMPOUNDS AND METHODS USEFUL FOR STABILIZING PHENYLALANINE HYDROXYLASE MUTATIONS” (Agios Pharmaceuticals, Inc., priority 2022, published 2025).

biological target: T1, human PAH with the R408W mutation (Homo sapiens, UniProt P00439, R408W); assay: Cell Based Phenylalanine Flux Assay; design: scale not given here; details: A375 R408W cells, 24 hrs with compound, then 20 μM sepiapterin and 800 μM 13C9,15N-Phenylalanine for 4 hours; 13C-Tyrosine by LC-MS; average where tested multiple times
T1 construct: expressed in transfected cells
T1 sequence (P00439 1-452 R408W): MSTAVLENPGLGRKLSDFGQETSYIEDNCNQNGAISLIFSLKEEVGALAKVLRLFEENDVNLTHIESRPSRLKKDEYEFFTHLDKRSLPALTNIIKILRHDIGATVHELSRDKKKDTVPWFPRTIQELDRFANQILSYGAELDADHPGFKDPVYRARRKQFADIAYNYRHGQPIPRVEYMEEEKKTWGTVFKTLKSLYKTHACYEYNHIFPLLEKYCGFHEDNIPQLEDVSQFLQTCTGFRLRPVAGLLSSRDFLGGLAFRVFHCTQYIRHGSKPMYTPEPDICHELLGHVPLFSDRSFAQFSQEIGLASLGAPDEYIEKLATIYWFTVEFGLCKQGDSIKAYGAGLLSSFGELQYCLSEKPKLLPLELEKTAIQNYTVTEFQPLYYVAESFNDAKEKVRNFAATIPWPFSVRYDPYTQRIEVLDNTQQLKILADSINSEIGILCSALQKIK

AC50	Compound
E, E	Cn1cnc(-c2nc(C(F)F)c(C(=O)N3CCc4[nH]cnc4C3c3ncc4ccccc4n3)o2)c1 (stereo not shown)
E, E,	CC1CN(C(=O)c2oc(C(C)(C)O)nc2C(F)(F)F)C(c2cc3ccccc3cn2)c2nc[nH]c21 [(4R,7R) diastereomer of (2-(2-hydroxypropan-2-yl)-4-(trifluo]

same assay, conditions: A375 R408W cells, 24 hrs with compound, then 20 μM sepiapterin and 800 μM 13C9,15N-Phenylalanine for 4 hours; 13C-Tyrosine by LC-MS; average where tested multiple times; read-out: AC50

AC50 [µM]	Compound
1 to 5	Cn1ccc(C(=O)N2CCc3[nH]cnc3C2c2ccc3ccccc3n2)n1 (stereo not shown)
1 to 5	O=C(c1oc(-c2ccccn2)nc1C1CC1)N1CCc2nc[nH]c2C1c1cn2ccccc2n1 (stereo not shown)
1 to 5	CC(C)(O)c1cc(C(=O)N2CCc3[nH]cnc3[C@H]2c2cc3ccccc3cn2)on1
> 5	CC1CN(C(=O)c2nnc(NC3CC3)o2)C(c2cc3ccccc3cn2)c2nc[nH]c21 (single isomer, unassigned)
1 to 5	O=C(c1n[nH]c2ccccc12)N1CCc2[nH]cnc2C1c1ccc2ccccc2n1 (stereo not shown)
> 5	O=C(c1nnc(-c2ccccn2)o1)N1CCCc2[nH]cnc2C1c1ccc2ccccc2n1 (stereo not shown)
1 to 5	O=C(CCc1cnco1)N1CCc2[nH]cnc2C1c1cn2ccccc2n1 (stereo not shown)
1 to 5	O=C(c1nnc(N2CC(F)C2)o1)N1CCc2[nH]cnc2C1c1ccc2ccccc2n1 (stereo not shown)

Compound	AC50 [µM]
C[C@H]1CN(C(=O)c2nnc(N3CC(F)C3)o2)[C@H](c2cc3ccccc3cn2)c2nc[nH]c21 (single isomer, unassigned)	1 to 5

same assay, conditions: A375 cells expressing human R408W PAH; 24 hrs compound incubation; 13C-Tyrosine by LC-MS; average where tested multiple times; read-out: AC50

AC50 [µM]	Compound
< 0.5	O=C(c1nnc(-c2cc[nH]n2)o1)N1CCc2[nH]cnc2[C@H]1c1cc2ccccc2cn1 [Example 451, (R)-(5-(1H-pyrazol-3-yl)-1,3,4-oxadiazol-2-yl)(4-(isoquinolin-3-yl)-6,7-dihydro-1H-imidazo[4,5-c]pyridin-5(4H)-yl)methanone]
0.5 to 1	O=C(c1cnc(-c2ccccn2)o1)N1CCc2[nH]cnc2[C@H]1c1ncc2ccccc2n1 [Example 158, (S)-(2-(pyridin-2-yl)oxazol-5-yl)(4-(quinazolin-2-yl)-6,7-dihydro-1H-imidazo[4,5-c]pyridin-5(4H)-yl)methanone]
1 to 5	O=C(c1cnn2cc(N3CCC(F)CC3)ccc12)N1CCc2[nH]cnc2[C@H]1c1cc2ccccc2cn1 [Example 474, (R)-(6-(4-fluoropiperidin-1-yl)pyrazolo[1,5-a]pyridin-3-yl)(4-(isoquinolin-3-yl)-6,7-dihydro-1H-imidazo[4,5-c]pyridin-5(4H)-yl)methanone]
< 0.5	Cn1cc(C(=O)N2CCc3[nH]cnc3C2c2ccc3ccccc3n2)c(Cl)n1 (stereo in doubt) [Example 88, (R)-(3-chloro-1-methyl-1H-pyrazol-4-yl)(4-(quinolin-2-yl)-6,7-dihydro-1H-imidazo[4,5-c]pyridin-5(4H)-yl)methanone]
< 0.5	CC(C)(C)c1ncc(C(=O)N2CCc3[nH]cnc3C2c2ccc3ccccc3n2)o1 (stereo in doubt) [Example 258, (R)-(2-(tert-butyl)oxazol-5-yl)(4-(quinolin-2-yl)-6,7-dihydro-1H-imidazo[4,5-c]pyridin-5(4H)-yl)methanone]
< 0.5	O=C(c1nnc(-c2ccccn2)o1)N1CCc2[nH]cnc2[C@H]1c1ncc2ccccc2n1 [Example 145, (S)-(5-(pyridin-2-yl)-1,3,4-oxadiazol-2-yl)(4-(quinazolin-2-yl)-6,7-dihydro-1H-imidazo[4,5-c]pyridin-5(4H)-yl)methanone]
< 0.5	CN(C)Cc1ccc2c(C(=O)N3CCc4[nH]cnc4[C@H]3c3cc4ccccc4cn3)cnn2c1 [Example 330, (R)-(6-((dimethylamino)methyl)pyrazolo[1,5-a]pyridin-3-yl)(4-(isoquinolin-3-yl)-6,7-dihydro-1H-imidazo[4,5-c]pyridin-5(4H)-yl)methanone]
< 0.5	C[C@@H]1CN(C(=O)c2oc(-c3ccccn3)nc2C2CC2)[C@H](c2cc3ccccc3cn2)c2nc[nH]c21 [Example 410, (4-cyclopropyl-2-(pyridin-2-yl)oxazol-5-yl)((4R,7R)-4-(isoquinolin-3-yl)-7-methyl-6,7-dihydro-1H-imidazo[4,5-c]pyridin-5(4H)-yl)methanone]
